In ChEMBL document CHEMBL2021794, “Synthesis, σ₁, σ₂-receptors binding affinity and antiproliferative action of new C1-substituted adamantanes” (Bioorg Med Chem, 2012):
Active and inactive are the calls of the source. No cut-off for these calls is given here.

Tests used:
BXPC-3 [1] = experiment: Cell cycle arrest in human BxPC3 cells assessed as accumulation at < G1 phase at 50 uM after 24 hrs by propidium iodide staining based flow cytometry (reference value: 9%); type: functional
BXPC-3 [2] = experiment: Induction of apoptosis in human BxPC3 cells assessed as early apoptotic cells at 50 uM after 24 hrs by Annexin V/7-AAD staining based flow cytometry (reference value: 11%); type: functional
HCT-116 [3] = experiment: Growth inhibition of human HCT116 cells after 48 hrs by SRB assay; type: functional; conditions: HCT-116, 48 h
BXPC-3 [4] = experiment: Growth inhibition of human BxPC3 cells after 48 hrs by SRB assay; type: functional; conditions: BXPC-3, 48 h
PC-3 [5] = experiment: Induction of apoptosis in human PC3 cells assessed as total apoptotic death cells at 5 uM after 24 hrs by Annexin V/7-AAD staining based flow cytometry (reference value: 7%); type: functional
BXPC-3 [6] = experiment: Induction of apoptosis in human BxPC3 cells assessed as early apoptotic cells at 15 uM after 24 hrs by Annexin V/7-AAD staining based flow cytometry (reference value: 11%); type: functional
PC-3 [7] = experiment: Cell cycle arrest in human PC3 cells assessed as accumulation at S phase at 0.5 uM after 24 hrs by propidium iodide staining based flow cytometry (reference value: 42%); type: functional
BXPC-3 [8] = experiment: Induction of apoptosis in human BxPC3 cells assessed as healthy cells at 15 uM after 24 hrs by Annexin V/7-AAD staining based flow cytometry (reference value: 77%); type: functional
IGROV-1 [9] = experiment: Growth inhibition of human IGROV1 cells after 48 hrs by SRB assay; type: functional; conditions: IGROV-1, 48 h
PC-3 [10] = experiment: Induction of apoptosis in human PC3 cells assessed as healthy cells at 50 uM after 24 hrs by Annexin V/7-AAD staining based flow cytometry (reference value: 92%); type: functional
HCT-116 [11] = experiment: Cytotoxicity against human HCT116 cells after 48 hrs by trypan blue assay; type: functional, cell-based
IGROV-1 [12] = experiment: Cell cycle arrest in human IGROV1 cells assessed as accumulation at < G1 phase at 5 uM after 24 hrs by propidium iodide staining based flow cytometry (reference value: 4%); type: functional
IGROV-1 [13] = experiment: Induction of apoptosis in human IGROV1 cells assessed as healthy cells at 15 uM after 24 hrs by Annexin V/7-AAD staining based flow cytometry (reference value: 86%); type: functional
BXPC-3 [14] = experiment: Cell cycle arrest in human BxPC3 cells assessed as accumulation at >G2 phase at 50 uM after 24 hrs by propidium iodide staining based flow cytometry (reference value: 6%); type: functional
IGROV-1 [15] = experiment: Cytotoxicity against human IGROV1 cells at 50 uM; type: functional, cell-based
BXPC-3 [16] = experiment: Antitumor activity against human BxPC3 cells xenografted in SCID mouse assessed as reduction in tumor volume at 40 mg/kg, ip for 5 consecutive days and 2 administrations for one more week; type: functional; conditions: BXPC-3, ip, route intraperitoneal
PC-3 [17] = experiment: Induction of apoptosis in human PC3 cells assessed as cleaved caspase-3 containing cells at 5 uM after 24 hrs by FACS analysis (reference value: 3%); type: functional
BXPC-3 [18] = experiment: Induction of apoptosis in human BxPC3 cells assessed as healthy cells at 5 uM after 24 hrs by Annexin V/7-AAD staining based flow cytometry (reference value: 77%); type: functional
PC-3 [19] = experiment: Induction of apoptosis in human PC3 cells assessed as cleaved caspase-3 containing cells at 15 uM after 24 hrs by FACS analysis (reference value: 3%); type: functional
IGROV-1 [20] = experiment: Cell cycle arrest in human IGROV1 cells assessed as accumulation at G2 phase at 5 uM after 24 hrs by propidium iodide staining based flow cytometry (reference value: 19%); type: functional
PC-3 [21] = experiment: Cell cycle arrest in human PC3 cells assessed as accumulation at S phase at 15 uM after 24 hrs by propidium iodide staining based flow cytometry (reference value: 42%); type: functional
SK-HEP1 = experiment: Growth inhibition of human SKHEP1 cells after 48 hrs by SRB assay; type: functional; conditions: SK-HEP1, 48 h
PC-3 [22] = experiment: Induction of apoptosis in human PC3 cells assessed as early apoptotic cells at 15 uM after 24 hrs by Annexin V/7-AAD staining based flow cytometry (reference value: 5%); type: functional
Mus musculus [23] = experiment: Toxicity in CD1 mouse assessed as weight loss at 40 mg/kg, ip after 3 to 4 weeks chronic treatment; type: organism-based; parameters: dose 40 mg/kg, route intraperitoneal; conditions: in vivo
SF-295 = experiment: Cytotoxicity against human SF295 cells after 48 hrs by trypan blue assay; type: functional, cell-based
IGROV-1 [24] = experiment: Cell cycle arrest in human IGROV1 cells assessed as accumulation at < G1 phase at 0.5 uM after 24 hrs by propidium iodide staining based flow cytometry (reference value: 4%); type: functional
MIA PaCa-2 = experiment: Antitumor activity against human MIAPaCa2 cells xenografted in SCID mouse assessed as reduction in tumor volume at 45 mg/kg, ip for 3 consecutive days; type: functional; conditions: MIA PaCa-2, ip, route intraperitoneal
IGROV-1 [25] = experiment: Induction of apoptosis in human IGROV1 cells assessed as early apoptotic cells at 50 uM after 24 hrs by Annexin V/7-AAD staining based flow cytometry (reference value: 9%); type: functional
PC-3 [26] = experiment: Cell cycle arrest in human PC3 cells assessed as accumulation at >G2 phase at 50 uM after 24 hrs by propidium iodide staining based flow cytometry (reference value: 6%); type: functional
Mus musculus [27] = experiment: Toxicity in SCID mouse assessed as weight loss at 40 mg/kg, ip after 3 to 4 weeks chronic treatment; type: organism-based; parameters: dose 40 mg/kg, route intraperitoneal; conditions: in vivo
BXPC-3 [28] = experiment: Induction of apoptosis in human BxPC3 cells assessed as cleaved caspase-3 containing cells at 0.5 uM after 24 hrs by FACS analysis (reference value: 10%); type: functional
[29] = Selectivity ratio of IC50 for human sigma-1 receptor to IC50 for rat sigma-2 receptor
PC-3 [30] = experiment: Cytotoxicity against human PC3 cells after 48 hrs by trypan blue assay; type: functional, cell-based
PC-3 [31] = experiment: Cell cycle arrest in human PC3 cells assessed as accumulation at G2 phase at 0.5 uM after 24 hrs by propidium iodide staining based flow cytometry (reference value: 13%); type: functional
[32] = Displacement of [3H]BTX-B from Na+ channel site 2 after 60 mins by liquid scintillation spectroscopy
Mus musculus [33] = experiment: Analgesic activity against formalin-induced neuropathic pain in paclitaxel treated CD1 mouse assessed as decrease of time spent in paw licking at 100 mg/kg, po administered 14 days post paclitaxel dosing and 1 hr prior formalin challenge measured for 35 to 40 mins post formalin challenge; type: functional, organism-based; parameters: dose 100 mg/kg
BXPC-3 [34] = experiment: Induction of apoptosis in human BxPC3 cells assessed as cleaved caspase-3 containing cells at 15 uM after 24 hrs by FACS analysis (reference value: 10%); type: functional
Mus musculus [35] = experiment: Analgesic activity against formalin-induced neuropathic pain in paclitaxel treated CD1 mouse assessed as decrease of time spent in paw licking at 100 mg/kg, po administered 14 days post paclitaxel dosing and 1 hr prior formalin challenge measured for 0 to 5 mins post formalin challenge; type: functional, organism-based; parameters: dose 100 mg/kg
[36] = read-out: LC50 (the source's name)

Compound CN1CCN(c2ccc(C(c3ccccc3)C34CC5CC(CC(C5)C3)C4)cc2)CC1 (stereo unspecified) has an Activity (BXPC-3 [1]) of 25%, an Activity (BXPC-3 [2]) of 15% and a GI50 (HCT-116 [3]) of 4.92 µM. The TGI (HCT-116 [3]) was 9.37 µM, the CC50 (HCT-116 [3]; [36]) was 100 µM and the GI50 (BXPC-3 [4]) was 3.84 µM. The LC50 (BXPC-3 [4]) was 16.6 µM, the TGI (BXPC-3 [4]) was 6.96 µM and the Activity (PC-3 [5]) was 7%. It also gave an Activity (BXPC-3 [6]) of 12%, an Activity (PC-3 [7]) of 40% and an Activity (BXPC-3 [8]) of 60%. The GI50 (IGROV-1 [9]) was 8.83 µM, the TGI (IGROV-1 [9]) was 58.5 µM and the CC50 (IGROV-1 [9]; [36]) was 100 µM. The Activity (PC-3 [10]) was 61%, the Activity (HCT-116 [11]) was “Active” and the Activity (IGROV-1 [12]) was 5%. For the same compound, the Activity (IGROV-1 [13]) was 62%, the Activity (BXPC-3 [14]) was 5% and the Activity (IGROV-1 [15]) was “Active”. It also gave an inhibition in vivo at 40 mg/kg (BXPC-3 [16]) of 37.8%, an Activity (PC-3 [17]) of 2% and an Activity (BXPC-3 [18]) of 65%. The Activity (PC-3 [19]) was 3%, the Activity (IGROV-1 [20]) was 19% and the Activity (PC-3 [21]) was 33%. For the same compound, the GI50 (SK-HEP1) was 6.05 µM, the TGI (SK-HEP1) was 28.4 µM and the CC50 (SK-HEP1; [36]) was 77.6 µM. For the same compound, the Activity (PC-3 [22]) was 6%, the Activity (Mus musculus [23]) was “Non-toxic” and the Activity (SF-295) was “Active”. The Activity (IGROV-1 [24]) was 3%, the inhibition in vivo at 45 mg/kg (MIA PaCa-2) was 47.5% and the Activity (IGROV-1 [25]) was 46%. The Activity (PC-3 [26]) was 11%, the Activity (Mus musculus [27]) was “Non-toxic” and the Activity (BXPC-3 [28]) was 3%. For the same compound, the Ratio IC50 [29] was 11.8, the Activity (PC-3 [30]) was “Active” and the Activity (PC-3 [31]) was 14%. For the same compound, the IC50 [32] was 1200 nM, the Activity (Mus musculus [33]) was “Active” and the Activity (BXPC-3 [34]) was 11%. The Activity (Mus musculus [35]) was “Active”.
